In patent publication US12448394B2, “Heterocyclic pyrazole derivatives as type III receptor tyrosine kinase inhibitors” (DEVELOPMENT CENTER FOR BIOTECHNOLOGY, priority 2019, dated 2025):

How the values were obtained:
FLT3-D835Y mutant kinase = biological target: T1, FLT3-D835Y mutant kinase (Homo sapiens, UniProt P36888, D835Y); test: FLT3-D835Y mutant kinase assay (AlphaScreen); type: biochemical; conditions: read-out: Ranking of IC50 values, FLT3-D835Y
T1 construct: purchased SignalChem
T1 sequence (P36888 27-993 D835Y): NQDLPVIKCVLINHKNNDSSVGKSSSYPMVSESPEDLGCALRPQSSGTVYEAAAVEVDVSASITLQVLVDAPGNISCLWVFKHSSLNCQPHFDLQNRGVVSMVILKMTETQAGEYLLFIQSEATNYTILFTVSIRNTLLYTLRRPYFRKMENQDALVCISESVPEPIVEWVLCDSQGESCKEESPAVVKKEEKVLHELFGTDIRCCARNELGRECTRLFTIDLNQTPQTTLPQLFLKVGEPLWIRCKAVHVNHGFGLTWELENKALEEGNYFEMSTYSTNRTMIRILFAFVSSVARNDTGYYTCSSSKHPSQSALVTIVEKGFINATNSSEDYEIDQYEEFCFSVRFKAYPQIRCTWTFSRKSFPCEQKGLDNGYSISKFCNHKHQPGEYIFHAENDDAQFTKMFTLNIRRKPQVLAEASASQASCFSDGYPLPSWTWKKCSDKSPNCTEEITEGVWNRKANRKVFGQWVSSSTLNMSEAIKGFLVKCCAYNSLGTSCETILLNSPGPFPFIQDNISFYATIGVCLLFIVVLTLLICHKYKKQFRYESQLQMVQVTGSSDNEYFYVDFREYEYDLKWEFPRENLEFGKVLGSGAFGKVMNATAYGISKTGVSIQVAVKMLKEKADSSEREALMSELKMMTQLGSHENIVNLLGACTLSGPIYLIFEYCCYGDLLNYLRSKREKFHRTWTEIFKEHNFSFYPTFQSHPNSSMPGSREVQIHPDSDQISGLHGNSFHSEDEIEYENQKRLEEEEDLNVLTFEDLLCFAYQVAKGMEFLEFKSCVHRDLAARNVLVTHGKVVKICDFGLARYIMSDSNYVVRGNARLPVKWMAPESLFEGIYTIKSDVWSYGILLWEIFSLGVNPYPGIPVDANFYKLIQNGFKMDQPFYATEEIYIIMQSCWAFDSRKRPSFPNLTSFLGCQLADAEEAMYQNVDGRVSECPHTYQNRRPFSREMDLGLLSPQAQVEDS
Procedure, shortened: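 AlphaScreen readout of biotin-poly(Glu4:Tyr1) phosphorylation by 1 ng recombinant FLT3-D835Y. Conditions were 10 μM ATP, 10 mM MgCl2, MOPS pH 7.0, 30 min at 30 °C, EDTA stop. Compounds were serially diluted in duplicate to derive IC50.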

[1] = system: MV4-11 human acute myeloid leukemia cell with FLT3-ITD mutation; test: MV4-11 cell proliferation assay (CellTiter 96); type: cell-based; conditions: Homo sapiens, MV4-11, 72 h, MV4-11 cells, 72 hours treatment, CellTiter96; read-out: anti-proliferation activity MV4-11 (FLT3-ITD), IC50 ranking
Procedure, shortened: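 Cells seeded at 6500/well in IMDM with 10% heat-inactivated FBS, left overnight at 37 °C, 5% CO2, then exposed to increasing compound concentrations for 72 h. Viability read as absorbance at 490 nm after 2–4 h with CellTiter96 AQueous One reagent.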

[2] = system: Molm-14 human acute myeloid leukemia cell with FLT3-ITD mutation; test: Molm-14 cell proliferation assay (CellTiter 96); type: cell-based; conditions: Homo sapiens; Molm-14 cells, 72 hours treatment, CellTiter96; read-out: anti-proliferation activity Molm-14 (FLT3-ITD), IC50 ranking
Procedure, shortened: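 Molm-14 (FLT3-ITD AML) cells in RPMI 1640 with 10% heat-inactivated FBS were seeded at 25000 cells/well, incubated overnight at 37° C, 5% CO2, then treated with increasing compound concentrations for 72 hours. Viability was read as absorbance at 490 nm after 2˜4 hours with CellTiter96 AQueous One reagent.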

Row | SMILES | IC50 (FLT3-D835Y mutant kinase) | IC50 [1] | IC50 [2]
1 | Cn1ncc2ccc(-c3n[nH]c4c3Cc3sc(-c5cccc(C(=O)N6CCOCC6)c5)cc3-4)cc21 [Compound 37, (3-(3-(1-methyl-1H-indazol-6-yl)-1,4-dihydro-thieno[2′,3′:4,5]cyclopenta [1,2-c]pyrazol-6-yl)phenyl)(morpholino) methanone] | 1 to 10 nM | < 30 nM | 30 to 100 nM
2 | Cn1ncc2ccc(-c3n[nH]c4c3Cc3sc(-c5ccc(C(=O)N6CCCC6)cc5)cc3-4)cc21 [Compound 38, (4-(3-(1-methyl-1H-indazol-6-yl)-1,4-dihydro-thieno[2′,3′:4,5]cyclopenta [1,2-c]pyrazol-6-yl)phenyl)(pyrrolidin-1-yl) methanone] | 1 to 10 nM | < 30 nM | 30 to 100 nM
3 | Cn1ncc2ccc(-c3n[nH]c4c3Cc3sc(-c5ccc(CN6CCSCC6)cc5)cc3-4)cc21 [Compound 39, 3-(1-methyl-1H-indazol-6-yl)-6-(4-(thiomorpho-linomethyl)phenyl)-1,4-dihydrothieno[2′,3′:4,5] cyclopenta[1,2-c]pyrazole] | 1 to 10 nM | 30 to 100 nM | 30 to 100 nM
4 | Cn1ncc2ccc(-c3n[nH]c4c3Cc3sc(-c5cnc(C(=O)N6CCOCC6)nc5)cc3-4)cc21 [Compound 41, (5-(3-(1-methyl-1H-indazol-6-yl)-1,4-dihydrothieno[2′,3′:4,5]cyclopenta[1,2-c]pyrazol-6-yl)pyrimidin-2-yl) (morpholino)methanone] | 1 to 10 nM | < 30 nM | < 30 nM
5 | CC(C)n1ncc2ccc(-c3n[nH]c4c3Cc3sc(-c5ccc(CN6CCOCC6)cc5)cc3-4)cc21 [Compound 42, 4-(4-(3-(1-isopropyl-1H-indazol-6-yl)-1,4-dihydro-thieno[2′,3′:4,5]cyclopenta [1,2-c]pyrazol-6-yl)benzyl)morpholine] | 1 to 10 nM | 30 to 100 nM | 100 to 300 nM
6 | COc1cc(-c2cc3c(s2)Cc2c(-c4ccc5cnn(C)c5c4)n[nH]c2-3)ccc1C(=O)N1CCOCC1 [Compound 43, (2-methoxy-4-(3-(1-methyl-1H-indazol-6-yl)-1,4-dihydrothieno [2′,3′:4,5]cyclopenta [1,2-c]pyrazol-6-yl)phenyl)(morpholino) methanone] | 1 to 10 nM | 30 to 100 nM | 30 to 100 nM
7 | Cn1ncc2ccc(-c3n[nH]c4c3Cc3sc(-c5ccc(C(=O)N6CCOCC6)c(F)c5)cc3-4)cc21 [Compound 44, (2-fluoro-4-(3-(1-methyl-1H-indazol-6-yl)-1,4-dihydrothieno[2′,3′:4,5]cyclopenta[1,2-c]pyrazol-6-yl)phenyl)(morpholino) methanone] | < 1 nM | < 30 nM | < 30 nM
8 | Cn1ncc2ccc(-c3n[nH]c4c3Cc3sc(-c5cnc(N)nc5)cc3-4)cc21 [Compound 45, 5-(3-(1-methyl-1H-indazol-6-yl)-1,4-dihydrothieno [2′,3′:4,5]cyclopenta[l,2-c]pyrazol-6-yl)pyrimidin-2-amine] | < 1 nM | < 30 nM | < 30 nM
9 | Cn1cc(-c2cc3c(s2)Cc2c(-c4ccc5cnn(C)c5c4)n[nH]c2-3)cc1C(=O)N1CCOCC1 [Compound 46, (1-methyl-4-(3-(1-methyl-1H-indazol-6-yl)-1,4-dihydrothieno[2′,3′:4,5]cyclopenta[1,2-c]pyrazol-6-yl)-1H-pyrrol-2-yl) (morpholino)methanone] | < 1 nM | < 30 nM | < 30 nM
10 | Cn1ncc2ccc(-c3n[nH]c4c3Cc3sc(-c5ccc(S(=O)(=O)N6CCOCC6)cc5)cc3-4)cc21 [Compound 47, 4-((4-(3-(1-methyl-1H-indazol-6-yl)-1,4-dihydro-thieno[2′,3′:4,5]cyclopenta [1,2-c]pyrazol-6-yl)phenyl)sulfonyl) morpholine] | < 1 nM | < 30 nM | < 30 nM
11 | Cn1ncc2ccc(-c3n[nH]c4c3Cc3sc(-c5csc(C(=O)N6CCOCC6)c5)cc3-4)cc21 [Compound 48, (4-(3-(1-methyl-1H-indazol-6-yl)-1,4-dihydro-thieno[2′,3′:4,5]cyclopenta [1,2-c]pyrazol-6-yl)thiophen-2-yl) (morpholino)methanone] | < 1 nM | < 30 nM | < 30 nM
12 | CN(C)C(=O)c1ccc(-c2cc3c(s2)Cc2c(-c4ccc5cnn(C)c5c4)n[nH]c2-3)cc1 [Compound 49, N,N-dimethyl-4-(3-(1-methyl-1H-indazol-6-yl)-1,4-dihydrothieno [2′,3′:4,5]cyclopenta [1,2-c]pyrazol-6-yl) benzamide] | < 1 nM | < 30 nM | < 30 nM
13 | CN(C)S(=O)(=O)c1ccc(-c2cc3c(s2)Cc2c(-c4ccc5cnn(C)c5c4)n[nH]c2-3)cc1 [Compound 50, N,N-dimethyl-4-(3-(1-methyl-1H-indazol-6-yl)-1,4-dihydrothieno [2′,3′:4,5]cyclopenta [1,2-c]pyrazol-6-yl) benzenesulfonamide] | < 1 nM | < 30 nM | 30 to 100 nM
14 | Cn1ncc2ccc(-c3n[nH]c4c3Cc3sc(-c5ccc(CN6CCOCC6)s5)cc3-4)cc21 [Compound 51, 4-((5-(3-(1-methyl-1H-indazol-6-yl)-1,4-dihydro-thieno[2′,3′:4,5]cyclopenta [1,2-c]pyrazol-6-yl)thiophen-2-yl)methyl) morpholine] | < 1 nM | < 30 nM | 30 to 100 nM
15 | Cn1ncc2ccc(-c3n[nH]c4c3Cc3sc(-c5csc(CN6CCOCC6)c5)cc3-4)cc21 [Compound 52, 4-((4-(3-(1-methyl-1H-indazol-6-yl)-1,4-dihydro-thieno[2′,3′:4,5]cyclopenta [1,2-c]pyrazol-6-yl)thiophen-2-yl)methyl) morpholine] | < 1 nM | < 30 nM | 30 to 100 nM
16 | Cn1ncc2ccc(-c3n[nH]c4c3Cc3sc(-c5cc(F)c(CN6CCOCC6)c(F)c5)cc3-4)cc21 [Compound 53, 4-(2,6-difluoro-4-(3-(1-methyl-1H-indazol-6-yl)-1,4-dihydrothieno [2′,3′:4,5]cyclopenta [1,2-c]pyrazol-6-yl)benzyl)morpholine] | 1 to 10 nM | 30 to 100 nM | 100 to 300 nM
17 | C[C@@H]1CN(Cc2ccc(-c3cc4c(s3)Cc3c(-c5ccc6cnn(C)c6c5)n[nH]c3-4)cc2)C[C@H](C)O1 [Compound 54, (2S,6R)-2,6-dimethyl-4-(4-(3-(1-methyl-1H-indazol-6-yl)-1,4-dihydro-thieno[2′,3′:4,5]cyclopenta [1,2-c]pyrazol-6-yl)benzyl)morpholine] | < 1 nM | < 30 nM | 30 to 100 nM
18 | Cn1ncc2ccc(-c3n[nH]c4c3Cc3sc(-c5cc(C(=O)N6CCOCC6)ccn5)cc3-4)cc21 [Compound 56, (2-(3-(1-methyl-1H-indazol-6-yl)-1,4-dihydro-thieno[2′,3′:4,5]cyclopenta [1,2-c]pyrazol-6-yl)pyridin-4-yl)(morpholino) methanone] | 1 to 10 nM | < 30 nM | 30 to 100 nM
19 | Cn1ncc2ccc(-c3n[nH]c4c3Cc3sc(C5=CCN(C(=O)N6CCOCC6)CC5)cc3-4)cc21 [Compound 57, (4-(3-(1-methyl-1H-indazol-6-yl)-1,4-dihydro-thieno[2′,3′:4,5]cyclopenta [1,2-c]pyrazol-6-yl)-3,6-dihydropyridin-1(2H)-yl) (morpholino)methanone] | < 1 nM | < 30 nM | < 30 nM
20 | Cn1ncc2ccc(-c3n[nH]c4c3Cc3sc(C5CCN(C(=O)OC(C)(C)C)CC5)cc3-4)cc21 [Compound 58, tert-butyl-4-(3-(1-methyl-1H-indazol-6-yl)-1,4-dihydrothieno[2′,3′:4,5]cyclopenta[1,2-c]pyrazol-6-yl)piperidine-1-carboxylate] | 1 to 10 nM | 30 to 100 nM | 100 to 300 nM
